Assay [1] has as its system C2C12 myotubes. Put plainly: Myotube diameter in doxorubicin-induced cachexia cell model (Experimental Example 8). The class given is cell-based, mouse. The note with it: doxorubicin 500 nM 48 h with or without oxiracetam 0.01, 0.1, 1, 10 and 30 μM; relative to control. As for the experimental part:
A mouse-derived C2C12 cell line was provided from the American Type Culture Collection (ATCC, CRL-1772; Manassas, VA, USA) and cultured at 37° C. in 5% CO2. In the proliferation phase of the cells before differentiation, high concentration glucose Dulbecco's modified Eagle's medium (DMEM) containing 1% penicillin/streptomycin and 10% fetal bovine serum (FBS) medium were used, and in the differentiation induction, the FBS medium was replaced with a 2% horse serum (HS)-containing medium. The C2C12 myoblasts were seeded into a 96 well culture plate and a 6 well culture plate at 2×10^5/well and 5×10^3/well, respectively, and cultured at 37° C. in a CO2 incubator. […]
Two days after anticancer agent and oxiracetam treatment, the anticancer agent-treated group (Doxorubicin), the oxiracetam-treated groups (Oxiracetam 0.01 μM, 0.1 μM, 1 μM, 10 μM and 30 μM), and the control (control) were photographed using an optical microscope at a room temperature, and the diameter (Diameter, %) of a myotube in each group was measured and compared.
(§1) Statistical processing was performed using GraphPad Prism (GraphPad Software Inc., San Diego, CA, USA). The results of each repeated experiment were expressed as mean±standard error of mean, and analyzed using the analysis of variance (Tukey's test), and statistical significance was acknowledged when the P-value was 0.05 or less.

Assay [2] deals with animal model in which muscular atrophy is induced by dexamethasone. Put plainly: Comparison with dementia drugs in dexamethasone muscular atrophy model (Experimental Example 5). Format: in vivo, ICR mice.
Source text: For an experimental group in the present invention, oxiracetam having a structure of Formula 1 was purchased from Tokyo Chemical Industry (Japan; Product No. 00398, CAS RN:62613-82-5, purity: 96%) and used. Mirtazapine and olanzapine were purchased from Tokyo Chemical Industry (Japan, Product Nos. M2151, 00393, purity: 96%) and used.
As experimental animals, 7-week-old male ICR mice were purchased and used. Until the day of the experiment, general feed (EEGJ30060: Cargill Agri Purina, Seongnam, Korea) and water were sufficiently supplied to the experimental animals, and the animals were acclimated for 1 week under an environment of a temperature of 23±2° C., a humidity of 55±10%, and a light-dark cycle of 12 hours-12 hours and used in the experiment.
After the acclimation period for the experimental animals, to create a muscular atrophy model, the mice were randomly divided into groups of 7 animals, such as a control (vehicle, n=7), a dexamethasone-treated group (n=7), and a drug-administered group (n=7). The groups except for the control were intraperitoneally injected dexamethasone at a dose of 10 mg/kg from day 7 to day 21 for 14 days. In the case of the drug-administered group, 7 days before the intraperitoneal administration of dexamethasone, the drug was orally administered using a Zonde needle at a dose of 30 or 10 mg/kg/day once a day for 21 days. During the same period, the control was administered no drug, and 100 μL of normal saline was orally administered at a time. To the dexamethasone-treated group (dexamethasone excipient, CMC), instead of the drug, 100 μL of a 0.5% carboxymethylcellulose (CMC) solution was administered. This is to set the effect on the excipient as a blank.
To measure grip strength, a grip strength test was performed. The maximum force presented when the forelimbs of an animal model of each group could no longer hold the rod by pulling the tail horizontally while holding the tail of the animal model and holding the rod of a device with both front paws was considered to be grip strength (N). Grip strength adaptation training was performed at least three times before drug administration. After measurement before drug administration (day 0) and on day 20 after drug administration began, grip strength variation (%) after drug administration began (day 20) with respect to that before drug administration (day 0) was calculated.
The lean body mass of the gastrocnemius muscle (GS) and the lean body mass of the tibialis anterior (TA) for each group were measured every 7 days. Specifically, animal models of each group were anesthetized using 3% isoflurane, fixed to a photographing bed and then photographed. During photographing, the respiratory rates and body temperatures of the animal models were measured with an animal monitoring system (SA Instruments, USA).
The whole body of the animal model was photographed through dual energy X-ray absorptiometry (DEXA) using iNSiGHT VET DXA (Osteosys, KR), and the lean body mass of each of the gastrocnemius muscle (GS) and the tibialis anterior (TA) was measured and calculated from the two-dimensional images of the gastrocnemius muscle (GS) and the tibialis anterior (TA) by a program using the region of interest (ROI).
as §1

Assay [3] deals with C2C12 myotubes. The assay can be described thus: Myotube diameter in TNF-α muscular atrophy cell model (Experimental Example 7). Format: cell-based, mouse. To be noted: TNF-α 10 ng/ml 48 h with oxiracetam 10 μM or 0 μM; relative to non-treated control. As for the experimental part:
A mouse-derived C2C12 cell line was provided from the American Type Culture Collection (ATCC, CRL-1772; Manassas, VA, USA) and cultured at 37° C. in 5% CO2. In the proliferation phase of the cells before differentiation, high concentration glucose Dulbecco's modified Eagle's medium (DMEM) containing 1% penicillin/streptomycin and 10% fetal bovine serum (FBS) medium were used, and in the differentiation induction, the FBS medium was replaced with a 2% horse serum (HS)-containing medium. The C2C12 myoblasts were seeded into a 96 well culture plate and a 6 well culture plate at 2×10^5/well and 5×10^3/well, respectively, and cultured at 37° C. in a CO2 incubator. When the confluency reached approximately 90%, the medium was replaced with 2% horse serum (HS)-containing DMEM to induce differentiation of myoblasts. After 5 days, the C2C12 myotubes that had differentiated were treated with 10 ng/ml TNF-α, which is an inflammatory factor, for 48 hours to cause myotube atrophy, thereby creating a muscular atrophy cell model, TNF-α-treated group (TNF-α). During the TNF-α treatment, 10 μM oxiracetam was treated to create an oxiracetam-treated group (Oxiracetam 10 μM), cells that were not treated during the same period were prepared as a control. Two days after TNF-α and oxiracetam treatment, each of the TNF-α-treated group (TNF-α), the oxiracetam-treated group (Oxiracetam 10 μM) and the control was treated with an ATP detection reagent at room temperature, and then luminescence was measured using a mitochondrial ToxGlo™ assay kit (Promega). In addition, the TNF-α-treated group (TNF-α), the oxiracetam-treated group (Oxiracetam 10 μM) and the control were photographed using an optical microscope and the diameter of a myotube cell in each group were measured and compared. Statistical processing was performed using GraphPad Prism (GraphPad Software Inc., San Diego, CA, USA).

Where [4] appears, read: oxiracetam 30, mirtazapine 10, olanzapine 10 mg/kg/day oral 21 days + dexamethasone, DEXA every 7 days.

Turning to `COc1cccc2c1C(=O)c1c(O)c3c(c(O)c1C2=O)C[C@@](O)(C(=O)CO)C[C@@H]3O[C@H]1C[C@H](N)[C@H](O)[C@H](C)O1` [Doxorubicin, doxorubicin], the diameter of myotube result in the assay on C2C12 myotubes [1] is given as “significantly decreased”.

As to `CN1CCN2c3ncccc3Cc3ccccc3C2C1` (centres unmarked) [mirtazapine], the “change in grip strength” value in assay [2] (oxiracetam 30, mirtazapine 10, olanzapine 10 mg/kg/day oral 21 days + dexamethasone 10 mg/kg i.p. day 7-21) was “reduced”. In assay [2] (setting [4]), the “lean body mass of the gastrocnemius muscle (GS)” value is “not recovered but rather reduced” and the “lean body mass of the tibialis anterior (TA)” value is “not recovered but rather reduced”.

As for TNF-α, the “diameter of a myotube relative to control” value in the assay with C2C12 myotubes [3] is on record as “greatly reduced to half the level of the control”.
